Test results taken from ChEMBL document CHEMBL1150242, “Subinhibitory concentrations of antibiotics induce phenazine production in a marine Streptomyces sp” (2008).
Activity calls are given as the source filed them. The rule behind the calls is not given here.

Assays:
Mammaliicoccus lentus = experiment: Antibacterial activity against Staphylococcus lentus; assay type: functional
Bacillus subtilis = experiment: Antibacterial activity against Bacillus subtilis; assay type: functional
Ralstonia solanacearum = experiment: Antibacterial activity against Ralstonia solanacearum; assay type: functional, organism-based
Erwinia amylovora = experiment: Antibacterial activity against Erwinia amylovora; assay type: functional, organism-based
Xanthomonas campestris = experiment: Antibacterial activity against Xanthomonas campestris; assay type: functional, organism-based
Pseudomonas fluorescens = experiment: Antibacterial activity against Pseudomonas fluorescens; assay type: functional, organism-based
Escherichia coli = experiment: Antibacterial activity against Escherichia coli; assay type: functional, organism-based
Pseudomonas syringae = experiment: Antibacterial activity against Pseudomonas syringae; assay type: functional, organism-based
Nakaseomyces glabratus = experiment: Antibacterial activity against Candida glabrata; assay type: functional, organism-based

With `CCC(C)CCCC(O)C(C(=O)OC)c1cccc2nc3c(C(=O)OC)cccc3nc12` (stereo unspecified) [STREPTOPHENAZINE G] the Activity (Mammaliicoccus lentus) was 62.5 µg/mL, the Activity (Bacillus subtilis) was “inactive” and the Activity (Ralstonia solanacearum) was “inactive”. The Activity (Erwinia amylovora) was “inactive”, the Activity (Xanthomonas campestris) was “inactive” and the Activity (Pseudomonas fluorescens) was “inactive”. The Activity (Escherichia coli) was “inactive”, the Activity (Pseudomonas syringae) was “inactive” and the Activity (Nakaseomyces glabratus) was “inactive”.
For `COC(=O)c1cccc2nc3c(C(C(=O)OC)C(O)CCCCC(C)C)cccc3nc12` (stereo unspecified) [STREPTOPHENAZINE F], the Activity (Mammaliicoccus lentus) was 62.5 µg/mL, the Activity (Bacillus subtilis) was “inactive” and the Activity (Ralstonia solanacearum) was “inactive”. The Activity (Erwinia amylovora) was “inactive”, the Activity (Xanthomonas campestris) was “inactive” and the Activity (Pseudomonas fluorescens) was “inactive”. The Activity (Escherichia coli) was “inactive”, the Activity (Pseudomonas syringae) was “inactive” and the Activity (Nakaseomyces glabratus) was “inactive”.
With `COC(=O)c1cccc2nc3c(C(C(=O)OC)C(O)CCC(C)C)cccc3nc12` (stereo unspecified) [STREPTOPHENAZINE D] the Activity (Bacillus subtilis) was 62.5 µg/mL and the Activity (Nakaseomyces glabratus) was “inactive”.
In the case of `COC(=O)c1cccc2nc3c(C(C(=O)OC)C(O)CCCC(C)C)cccc3nc12` (stereo unspecified) [STREPTOPHENAZINE A], the Activity (Mammaliicoccus lentus) is reported as 62.5 µg/mL, the Activity (Bacillus subtilis) is reported as 46.9 µg/mL and the Activity (Ralstonia solanacearum) is reported as “inactive”. For the same molecule, the Activity (Erwinia amylovora) was “inactive”, the Activity (Xanthomonas campestris) was “inactive” and the Activity (Pseudomonas fluorescens) was “inactive”. The Activity (Escherichia coli) was “inactive”, the Activity (Pseudomonas syringae) was “inactive” and the Activity (Nakaseomyces glabratus) was “inactive”.
`CCCCCCC(O)C(C(=O)OC)c1cccc2nc3c(C(=O)OC)cccc3nc12` (stereo unspecified) [STREPTOPHENAZINE B] was tested, and the Activity (Mammaliicoccus lentus) was 62.5 µg/mL, the Activity (Bacillus subtilis) was “inactive” and the Activity (Ralstonia solanacearum) was “inactive”. For the same molecule, the Activity (Erwinia amylovora) was “inactive”, the Activity (Xanthomonas campestris) was “inactive” and the Activity (Pseudomonas fluorescens) was “inactive”. The Activity (Escherichia coli) was “inactive”, the Activity (Pseudomonas syringae) was “inactive” and the Activity (Nakaseomyces glabratus) was “inactive”.
With `COC(=O)C(c1cccc2nc3c(C(=O)O)cccc3nc12)C(O)CCCC(C)C` (stereo unspecified) [STREPTOPHENAZINE C] the Activity (Mammaliicoccus lentus) was 46.9 µg/mL, the Activity (Bacillus subtilis) was 15.6 µg/mL and the Activity (Ralstonia solanacearum) was “inactive”. The Activity (Erwinia amylovora) was “inactive”, the Activity (Xanthomonas campestris) was “inactive” and the Activity (Pseudomonas fluorescens) was “inactive”. The Activity (Escherichia coli) was “inactive”, the Activity (Pseudomonas syringae) was “inactive” and the Activity (Nakaseomyces glabratus) was “inactive”.
`CCCCC(O)C(C(=O)OC)c1cccc2nc3c(C(=O)OC)cccc3nc12` (stereo unspecified) [STREPTOPHENAZINE E] was tested, and the Activity (Bacillus subtilis) was 62.5 µg/mL and the Activity (Nakaseomyces glabratus) was “inactive”.
For `COC(=O)c1cccc2nc3c(C(C(=O)OC)C(O)CCCC(C)(C)O)cccc3nc12` (stereo unspecified) [STREPTOPHENAZINE H], the Activity (Bacillus subtilis) was 15.6 µg/mL and the Activity (Nakaseomyces glabratus) was “inactive”.
